Common to all, as to assay: MIC in microtiter, antibacterial spectrum in vitro
Holding throughout (format): cell-based

One assay concerns E cloacae P 99 1321 E. To be noted: Penassay broth (Difco), overnight incubation at 37°C. On the procedure:
(§1) MICS (minimum inhibitory concentrations) were determined in "microtiter" using Brain-heart infusion broth (Difco) or Penassay broth (Difco) for gram-positive or gram-negative bacteria, respectively. S. pyogenes and S. pneu- moniae were tested in Todd-Merwitt broth (Difco).
(§2) The inoculum was overnight cultures diluted to obtain 10^3 or […] respectively in the case of gram-positive or gram-negative strains.
(§3) The MIC was defined as the lowest concentration of antibiotic which […] visible growth after overnight incubation at 37 °C.

In the next assay the test system is E. cloacae 45. To be noted: Penassay broth (Difco), overnight incubation at 37°C. On the procedure: as §1, §2, §3
A further assay deals with E. coli SKF 12140. To be noted: Penassay broth (Difco), overnight incubation at 37°C. On the procedure:
as §1, §2, §3

For another assay, the system named is K. aerogenes 1522 E. To be noted: Penassay broth (Difco), overnight incubation at 37°C. On the procedure:
as §1, §2, §3

The subject of the next assay is P. vulgaris ATCC 881. To be noted: Penassay broth (Difco), overnight incubation at 37°C. On the procedure:
as §1, §2, §3

The next assay deals with S. aureus ATCC 6538. The following applies: Brain-heart infusion broth (Difco), overnight incubation at 37°C. On the procedure: as §1, §2, §3
Another assay deals with S. aureus Smith. To be noted: Brain-heart infusion broth (Difco), overnight incubation at 37°C. On the procedure:
as §1, §2, §3

The subject of a further assay is S. pneumoniae UC 41. To be noted: Todd-Merwitt broth (Difco), overnight incubation at 37°C. On the procedure:
as §1, §2, §3

Assay [1] relates to S. pyogenes c 203 SKF 13400. The following applies: Todd-Merwitt broth (Difco), overnight incubation at 37°C. The procedure: as §1, §2, §3
A further assay has as its system S. pyogenes c 203 ISM. To be noted: Todd-Merwitt broth (Difco), overnight incubation at 37°C. On the procedure: as §1, §2, §3

A word on the MIC: it is the least concentration at which growth counts as inhibited. The low end stands for a more susceptible organism, the high end for a less susceptible organism. For the substance “Trans-(±)-6-ethyl-7-oxo-2-[[2-(2-(2-pyrimidinyl)ethy]-thio]-1-azabicyclo[3.2.0]hept-2-en-2-carboxylic acid S-oxide, (4-nitrophenyl)methyl ester [Example 23]”, the MIC against E cloacae P 99 1321 E is 3.1 µg/mL; in the assay with E. cloacae 45, 3.1 µg/mL; in the assay with E. coli SKF 12140, 6.2 µg/mL; against K. aerogenes 1522 E, 3.1 µg/mL; against P. vulgaris ATCC 881 it was 3.1 µg/mL; against S. aureus ATCC 6538, 0.1 µg/mL. For the same substance, the MIC with S. aureus Smith was determined as 0.1 µg/mL; in the assay with S. pneumoniae UC 41, 0.05 µg/mL; in assay [1], 0.05 µg/mL.
On to “Trans-(±)-6-ethyl-7-oxo-2-[[2-(2-pyridylamino)ethyl]-thio]-1-azabicyclo[3.2.0]hept-2-en-2-carboxylic acid S-oxide, (4-nitrophenyl)methyl ester [Example 22]”, for which the MIC is 25 µg/mL in the assay on E cloacae P 99 1321 E; 25 µg/mL against E. cloacae 45; 25 µg/mL against E. coli SKF 12140; 12.5 µg/mL in the assay with K. aerogenes 1522 E; 3.12 µg/mL against P. vulgaris ATCC 881; 0.1 µg/mL in the assay with S. aureus ATCC 6538. In addition, the MIC against S. pneumoniae UC 41 was 0.05 µg/mL; against S. pyogenes c 203 ISM, 0.1 µg/mL.
Consider “Trans-(±)-6-ethyl-7-oxo-2-[[2-[(2-thiazolyl)amino]-ethyl]thio]-1-azabicyclo]3.2.0]hept-2-en-2-carboxylic acid potassium salt [Example 24]”, for which the MIC with E cloacae P 99 1321 E worked out at 12.5 µg/mL; against E. cloacae 45, 6.2 µg/mL; in the assay on E. coli SKF 12140, 12.5 µg/mL; against K. aerogenes 1522 E, 6.2 µg/mL; against P. vulgaris ATCC 881, 6.2 µg/mL; with S. aureus ATCC 6538 it was 0.1 µg/mL. For the same substance, the results for the MIC (in the assay on S. aureus Smith; in the assay on S. pneumoniae UC 41; in assay [1]) were 0.4 µg/mL, 0.1 µg/mL and 0.1 µg/mL, respectively.

The values are drawn from patent publication EP0093915A1, “Novel beta-lactam derivatives” (GRUPPO LEPETIT S.P.A., priority 1982, dated 1983).
